Source: PubChem BioAssay AID1918998 (Molecular Pharmacology Branch, DTP, NCI, 2023)
“And” between values parts separate entries of the source, which are not always exact repeats. Equal entries are not always repeated.

Tested on: 521955-158-R2-J5-PDC complex spheroid growth
Test: Anticancer human tumor 521955-158-R2-J5-PDC patient-derived pancreatic carcinoma cell line growth inhibition [AhR]
Conditions: for viability, T/C: stronger effect = lower value
From the text: Multicellular complex tumor spheroid response to aryl hydrocarbon receptor antagonists in combination with a variety of drugs and investigational agents in selected tumor cell lines
The current study was undertaken to assess response to aryl hydrocarbon receptor antagonists in combination with standard-of-care drugs and investigational agents in solid tumor complex spheroid models. Complex spheroids include a stromal component modeled by human endothelial cells (HUVEC) and fibroblasts modeled by human mesenchymal stem cells (MSCs). The concentration ranges selected for each drug and investigational agent were based upon clinically achievable concentrations if the clinical Cmax of the agent was known.
Compounds. The drugs and investigational agents: BAY 2416964 (NSC825713), GNF351 (NSC835774), CH-223191 (NSC835775), CPI-455 (NSC825282), aza-TdCyd (NSC777586), decitabine (NSC127716), belinostat (NSC758774), entinostat (NSC756642), pevonedistat (NSC761192), tazemetostat (NSC777109), talazoparib (NSC765396), olaparib (NSC753686), selinexor (NSC780203), nedisertib (M3814, NSC802822), bortezomib (NSC756655), venetoclax (NSC766270), doxorubicin (NSC123127), elimusertib (BAY189344, NSC800525), ceralasertib (AZD6738, NSC777638), TAK-243 (NSC785004), alisertib (NSC759677), etoposide (NSC141540), topotecan (NSC609699), eribulin (NSC707389), gemcitabine (NSC613327), carboplatin (NSC241240), cisplatin (NSC119875), and SN-38 (NSC673596) were obtained from the National Cancer Institute (NCI) Developmental Therapeutics Program Chemical Repository (32). The FDA-approved anticancer drug set is available from the Developmental Therapeutics Program at https://dtp.cancer.gov/organization/dscb/obtaining/available plates.htm. […] The stock solutions were prepared in dimethyl sulfoxide (DMSO, Sigma-Aldrich, St. Louis, MO, cat. D2650), except for the platinum compounds which were prepared in saline (Quality Biological, Gaithersburg, MD, cat. 114-055-101), at 800-fold the tested concentration and stored at -70 degrees C prior to their use. All drugs and investigational agents were tested over a range starting from a high concentration at or near the clinical Cmax and decreasing in half-log increments. If the clinical Cmax for an agent had not been determined, the highest concentration tested was 10 microM (Table 1).
Cell Culture. All cells were maintained in an incubator at 37 degrees C and 5% CO2 with 95% humidity. The PDC lines were cultured according to standard operating procedures established by the NCI PDMR (https://pdmr.cancer.gov). Briefly, all PDCs were thawed and cultured in Matrigel-coated flasks prepared with a working solution of 1X Ham's F-12 nutrient mix, without supplementation (Invitrogen, Waltham, MA, cat. 11765054), 100 U/mL penicillin-streptomycin (Invitrogen, cat. 15140122), and 2.5% Matrigel (Corning Inc., Corning, NY, cat. 354248) for the first three passages. All PDCs were cultured in complete DMEM/F-12 media containing advanced DMEM/F-12 (Invitrogen, cat. 12634028), 4.9% defined fetal bovine serum, heat inactivated (HyClone Laboratories Inc., Logan, UT, cat. SH30070.03HI), 389 ng/mL hydrocortisone (Sigma-Aldrich, cat. H4001), 9.7 ng/mL human EGF recombinant protein (Invitrogen, cat. PHG0313), 23.4 microg/mL adenine (Sigma-Aldrich, cat. A2786), 97.3 U/mL penicillin-streptomycin (Invitrogen, cat. 15140122), 1.9 mM L-glutamine (Invitrogen, cat. 25030081), and 9.7 microM Y-27632 dihydrochloride (Tocris Bioscience, Bristol, United Kingdom, cat. 1254). The PDCs were cultured in complete DMEM/F12 media without 10 microM Y-27632 dihydrochloride for at least two passages prior to the screen. The established cell lines NCI-H1341 and […] were cultured in DMEM/F-12, HEPES (Invitrogen, cat. 11330032), 5% defined fetal bovine serum (HyClone Laboratories Inc., cat. SH30070.03), ITS premix universal culture supplement [insulin (5 microg/mL), transferrin (5 microg/mL), and selenious acid (5 ng/mL)] […]
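Throughout, for viability, T/C: spheroids mix tumor cells with HUVEC endothelium and human MSC stroma; luminescence taken as viability surrogate after a week of drug exposure.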

CC1COCCN1c1cc(C2(S(C)(=N)=O)CC2)nc(-c2ccnc3[nH]ccc23)n1 (configuration not stated) + Cc1cncc(-c2nc(NCCc3c[nH]c4ccccc34)c3ncn(C(C)C)c3n2)c1
IC50 (curve of first compound, second compound 0.1 µM): 2450 nM | IC50 (curve of first compound, second compound 0.316 µM): 2570 nM | IC50 (curve of first compound, second compound 1 µM): 2590 nM | IC50 (curve of first compound, second compound 3.16 µM): 2640 nM | IC50 (curve of first compound, second compound 10 µM): 2470 nM | viability, T/C (second compound 0.1 µM, first compound 0.0316 µM): 115% | viability, T/C (second compound 0.1 µM, first compound 0.1 µM): 108% | viability, T/C (second compound 0.1 µM, first compound 0.316 µM): 114% | viability, T/C (second compound 0.1 µM, first compound 1 µM): 107% | viability, T/C (second compound 0.1 µM, first compound 3.16 µM): 33.8% | viability, T/C (second compound 0.1 µM, first compound 10 µM): 15.5% | viability, T/C (second compound 0.316 µM, first compound 0.0316 µM): 125% | viability, T/C (second compound 0.316 µM, first compound 0.1 µM): 131% | viability, T/C (second compound 0.316 µM, first compound 0.316 µM): 105% | viability, T/C (second compound 0.316 µM, first compound 1 µM): 118% | viability, T/C (second compound 0.316 µM, first compound 3.16 µM): 35.1% | viability, T/C (second compound 0.316 µM, first compound 10 µM): 14.4% | viability, T/C (second compound 1 µM, first compound 0.0316 µM): 140% | viability, T/C (second compound 1 µM, first compound 0.1 µM): 138% | viability, T/C (second compound 1 µM, first compound 0.316 µM): 131% | viability, T/C (second compound 1 µM, first compound 1 µM): 128% | viability, T/C (second compound 1 µM, first compound 3.16 µM): 33.5% | viability, T/C (second compound 1 µM, first compound 10 µM): 15.5% | viability, T/C (second compound 3.16 µM, first compound 0.0316 µM): 139% | viability, T/C (second compound 3.16 µM, first compound 0.1 µM): 142% | viability, T/C (second compound 3.16 µM, first compound 0.316 µM): 154% | viability, T/C (second compound 3.16 µM, first compound 1 µM): 128% | viability, T/C (second compound 3.16 µM, first compound 3.16 µM): 35.7% | viability, T/C (second compound 3.16 µM, first compound 10 µM): 14.5% | viability, T/C (second compound 10 µM, first compound 0.0316 µM): 130% | viability, T/C (second compound 10 µM, first compound 0.1 µM): 132% | viability, T/C (second compound 10 µM, first compound 0.316 µM): 139% | viability, T/C (second compound 10 µM, first compound 1 µM): 111% | viability, T/C (second compound 10 µM, first compound 3.16 µM): 33.9% | viability, T/C (second compound 10 µM, first compound 10 µM): 14.3%

Cn1ncnc1C1c2n[nH]c(=O)c3cc(F)cc(c23)NC1c1ccc(F)cc1 (configuration not stated)
viability, T/C (compound 0.000316 µM): 106% and 64.7% and 90.7% | viability, T/C (compound 0.001 µM): 103% and 97.9% and 110% | viability, T/C (compound 0.00316 µM): 94.6% and 105% and 89.1% | viability, T/C (compound 0.01 µM): 94.8% and 75% and 89.5% | viability, T/C (compound 0.0316 µM): 85.7% and 73.9% and 97.8% | viability, T/C (compound 0.1 µM): 84.5% and 74% and 80.7% | IC50 (curve of compound): > 100 nM
